Experiments:
HT-1080 = test: Modulatory profiling: Alamar Blue viability, lethal compound cotreated with death modulator (EC50, AUC); assay type: cell-based; set-up: AUC, modulator HT.3MA / AUC, modulator HT.ALLN / AUC HT.ATA / AUC HT.ActD / AUC HT.BHA / AUC HT.BHT / AUC HT.BocD / AUC HT.CHX / AUC HT.Co2+ / AUC HT.DPQ / AUC HT.EGTA / AUC HT.Lmim / AUC HT.NAD+ / AUC HT.Nec-1 / AUC HT.SP600125 / AUC HT.TLCK / AUC HT.U0126: unit not given beside the values; settings: for AUC HT.ATA: HT-1080, modulator ATA; for AUC HT.ActD: HT-1080, modulator ActD; for AUC HT.BHA: HT-1080, modulator BHA; for AUC HT.BHT: HT-1080, modulator BHT; for AUC HT.BocD: HT-1080, modulator BocD; for AUC HT.CHX: HT-1080, modulator CHX; for AUC HT.Co2+: HT-1080, modulator Co2+; for AUC HT.CspA: HT-1080, modulator CspA; for AUC HT.DPQ: HT-1080, modulator DPQ; for AUC HT.EGTA: HT-1080, modulator EGTA; for AUC HT.Gd3+: HT-1080, modulator Gd3+; for AUC HT.LNAME: HT-1080, modulator LNAME; for AUC HT.Lmim: HT-1080, modulator Lmim; for AUC HT.NAD+: HT-1080, modulator NAD+; for AUC HT.NMMA: HT-1080, modulator NMMA; for AUC HT.Nec-1: HT-1080, modulator Nec-1; for AUC HT.Pepstatin: HT-1080, modulator Pepstatin; for AUC HT.SP600125: HT-1080, modulator SP600125; for AUC HT.TLCK: HT-1080, modulator TLCK; for AUC HT.U0126: HT-1080, modulator U0126; for HT.atoc (AUC) / HT.bCarotene (AUC) / HT.deferox (AUC) / HT.digoxin (AUC) / HT.trolox (AUC) / HT.zVAD (AUC): HT-1080; for HT.atoc (AUC): modulator atoc; for HT.bCarotene (AUC): modulator bCarotene; for HT.deferox (AUC): modulator deferox; for HT.digoxin (AUC): modulator digoxin; for HT.trolox (AUC): modulator trolox; for HT.zVAD (AUC): modulator zVAD; for AUC, modulator HT.3MA / AUC, modulator HT.ALLN: HT-1080 cells, modulatory profile value (AUC); for AUC, modulator HT.3MA: lethal compound cotreated with modulator 3MA; for AUC, modulator HT.ALLN: lethal compound cotreated with modulator ALLN
BJeLR = test: as above; assay type: cell-based, human; set-up: AUC, modulator BJ.Gd3+ / AUC, modulator BJ.LNAME / AUC, modulator BJ.Lmin / AUC, modulator BJ.3MA / AUC, modulator BJ.ALLN / AUC, modulator BJ.Boc D / AUC, modulator BJ.CHX / AUC, modulator BJ.Co2+ / AUC, modulator BJ.Nec-1 / AUC, modulator BJ.Pepstatin / AUC, modulator BJ.TLCK / AUC, modulator BJ.atoc / AUC, modulator BJ.trolox / AUC, modulator BJ.zVAD: unit not given beside the values; settings: BJeLR cells, modulatory profile value (AUC); for AUC, modulator BJ.3MA: lethal compound cotreated with modulator 3MA; for AUC, modulator BJ.ALLN: lethal compound cotreated with modulator ALLN; for AUC, modulator BJ.Boc D: lethal compound cotreated with modulator Boc D; for AUC, modulator BJ.CHX: lethal compound cotreated with modulator CHX; for AUC, modulator BJ.Co2+: lethal compound cotreated with modulator Co2+; for AUC, modulator BJ.DPQ: lethal compound cotreated with modulator DPQ; for AUC, modulator BJ.Gd3+: lethal compound cotreated with modulator Gd3+; for AUC, modulator BJ.LNAME: lethal compound cotreated with modulator LNAME; for AUC, modulator BJ.Lmin/NAD+: lethal compound cotreated with modulator Lmin/NAD+; for AUC, modulator BJ.Lmin: lethal compound cotreated with modulator Lmin; for AUC, modulator BJ.NAD+: lethal compound cotreated with modulator NAD+; for AUC, modulator BJ.NMMA: lethal compound cotreated with modulator NMMA; for AUC, modulator BJ.Nec-1: lethal compound cotreated with modulator Nec-1; for AUC, modulator BJ.Pepstatin: lethal compound cotreated with modulator Pepstatin; for AUC, modulator BJ.TLCK: lethal compound cotreated with modulator TLCK; for AUC, modulator BJ.atoc: lethal compound cotreated with modulator atoc; for AUC, modulator BJ.trolox: lethal compound cotreated with modulator trolox; for AUC, modulator BJ.zVAD: lethal compound cotreated with modulator zVAD

SMILES: COc1cccc2c1C(=O)c1c(O)c3c(c(O)c1C2=O)C[C@@](O)(C(=O)CO)C[C@@H]3O[C@H]1C[C@H](N)[C@H](O)[C@H](C)O1 [Doxorubicin]
- AUC HT.ATA (HT-1080): 0.02841
- AUC HT.ActD (HT-1080): 0.007993
- AUC HT.BHA (HT-1080): 0.02167
- AUC HT.BHT (HT-1080): −0.06815
- AUC HT.BocD (HT-1080): 0.05959
- AUC HT.CHX (HT-1080): 0.08993
- AUC HT.Co2+ (HT-1080): 0.2627
- AUC HT.CspA (HT-1080): −0.1098
- AUC HT.DPQ (HT-1080): 0.01107
- AUC HT.EGTA (HT-1080): 0.03492
- AUC HT.Gd3+ (HT-1080): 0.03741
- AUC HT.LNAME (HT-1080): 0.006685
- AUC HT.Lmim (HT-1080): 0.08822
- AUC HT.NAD+ (HT-1080): 0.1872
- AUC HT.NMMA (HT-1080): 0.02832
- AUC HT.Nec-1 (HT-1080): 0.007577
- AUC HT.Pepstatin (HT-1080): 0.008958
- AUC HT.SP600125 (HT-1080): −0.02148
- AUC HT.TLCK (HT-1080): 0.0633
- AUC HT.U0126 (HT-1080): −0.02036
- HT.atoc (AUC) (HT-1080): 0.00993
- HT.bCarotene (AUC) (HT-1080): 0.01512
- HT.deferox (AUC) (HT-1080): 0.2044
- HT.digoxin (AUC) (HT-1080): 0.1981
- HT.trolox (AUC) (HT-1080): −0.01413
- HT.zVAD (AUC) (HT-1080): 0.05138
- AUC, modulator HT.3MA (HT-1080): 0.03088
- AUC, modulator HT.ALLN (HT-1080): 0.03102
- AUC, modulator BJ.3MA (BJeLR): 0.03113
- AUC, modulator BJ.ALLN (BJeLR): 0.01555
- AUC, modulator BJ.Boc D (BJeLR): 0.04966
- AUC, modulator BJ.CHX (BJeLR): 0.1412
- AUC, modulator BJ.Co2+ (BJeLR): 0.1971
- AUC, modulator BJ.DPQ (BJeLR): 0.004462
- AUC, modulator BJ.Gd3+ (BJeLR): −0.01105
- AUC, modulator BJ.LNAME (BJeLR): 0.01382
- AUC, modulator BJ.Lmin/NAD+ (BJeLR): 0.1477
- AUC, modulator BJ.Lmin (BJeLR): 0.05475
- AUC, modulator BJ.NAD+ (BJeLR): 0.1339
- AUC, modulator BJ.NMMA (BJeLR): −0.007486
- AUC, modulator BJ.Nec-1 (BJeLR): −0.003677
- AUC, modulator BJ.Pepstatin (BJeLR): 0.01775
- AUC, modulator BJ.TLCK (BJeLR): 0.03307
- AUC, modulator BJ.atoc (BJeLR): 0.01689
- AUC, modulator BJ.trolox (BJeLR): 0.01164
- AUC, modulator BJ.zVAD (BJeLR): 0.05543

SMILES: CC(C)C[C@H](NC(=O)[C@H](CC(C)C)NC(=O)[C@H](CC(C)C)NC(=O)OCc1ccccc1)B(O)O [MG262]
- AUC HT.ATA (HT-1080): 0.0332
- AUC HT.ActD (HT-1080): −0.05854
- AUC HT.BHA (HT-1080): −0.0765
- AUC HT.BHT (HT-1080): −0.1219
- AUC HT.BocD (HT-1080): 0.007582
- AUC HT.CHX (HT-1080): −0.003977
- AUC HT.Co2+ (HT-1080): −0.04425
- AUC HT.CspA (HT-1080): −0.2145
- AUC HT.DPQ (HT-1080): 0.008104
- AUC HT.EGTA (HT-1080): −0.001152
- AUC HT.Gd3+ (HT-1080): −0.003168
- AUC HT.LNAME (HT-1080): 0.007002
- AUC HT.Lmim (HT-1080): 0.001457
- AUC HT.NAD+ (HT-1080): 0.07679
- AUC HT.NMMA (HT-1080): −0.004229
- AUC HT.Nec-1 (HT-1080): −0.06817
- AUC HT.Pepstatin (HT-1080): −0.006069
- AUC HT.SP600125 (HT-1080): −0.036
- AUC HT.TLCK (HT-1080): 0.03566
- AUC HT.U0126 (HT-1080): −0.06664
- HT.atoc (AUC) (HT-1080): 0.05222
- HT.bCarotene (AUC) (HT-1080): −0.009255
- HT.deferox (AUC) (HT-1080): −0.08465
- HT.digoxin (AUC) (HT-1080): 0.05597
- HT.trolox (AUC) (HT-1080): −0.02068
- HT.zVAD (AUC) (HT-1080): −0.05837
- AUC, modulator HT.3MA (HT-1080): −0.06563
- AUC, modulator HT.ALLN (HT-1080): −0.1356
- AUC, modulator BJ.3MA (BJeLR): −0.0362
- AUC, modulator BJ.ALLN (BJeLR): −0.1989
- AUC, modulator BJ.Boc D (BJeLR): 0.01756
- AUC, modulator BJ.CHX (BJeLR): 0.2438
- AUC, modulator BJ.Co2+ (BJeLR): 0.1109
- AUC, modulator BJ.DPQ (BJeLR): 0.005064
- AUC, modulator BJ.Gd3+ (BJeLR): 0.02134
- AUC, modulator BJ.LNAME (BJeLR): 0.02272
- AUC, modulator BJ.Lmin/NAD+ (BJeLR): 0.152
- AUC, modulator BJ.Lmin (BJeLR): 0.1437
- AUC, modulator BJ.NAD+ (BJeLR): 0.06084
- AUC, modulator BJ.NMMA (BJeLR): −0.006928
- AUC, modulator BJ.Nec-1 (BJeLR): −0.01342
- AUC, modulator BJ.Pepstatin (BJeLR): 0.006624
- AUC, modulator BJ.TLCK (BJeLR): 0.09405
- AUC, modulator BJ.atoc (BJeLR): 0.05198
- AUC, modulator BJ.trolox (BJeLR): 0.008087
- AUC, modulator BJ.zVAD (BJeLR): −0.05498

SMILES: COC(=O)c1ccc([C@@H]2c3[nH]c4ccccc4c3C[C@@H](C(=O)OC)N2C(=O)CCl)cc1 [RSL3, reference compound]
- AUC HT.ATA (HT-1080): −0.04539
- AUC HT.ActD (HT-1080): −0.08579
- AUC HT.BHA (HT-1080): 0.3798
- AUC HT.BHT (HT-1080): 0.2444
- AUC HT.BocD (HT-1080): −0.01184
- AUC HT.CHX (HT-1080): −0.05099
- AUC HT.Co2+ (HT-1080): −0.1948
- AUC HT.CspA (HT-1080): −0.1268
- AUC HT.DPQ (HT-1080): 0.1653
- AUC HT.EGTA (HT-1080): 0.03696
- AUC HT.Gd3+ (HT-1080): −0.01265
- AUC HT.LNAME (HT-1080): −0.01081
- AUC HT.Lmim (HT-1080): 0.3302
- AUC HT.NAD+ (HT-1080): 0.007883
- AUC HT.NMMA (HT-1080): −0.00551
- AUC HT.Nec-1 (HT-1080): 0.07095
- AUC HT.Pepstatin (HT-1080): −0.01327
- AUC HT.SP600125 (HT-1080): −0.1319
- AUC HT.TLCK (HT-1080): 0.3152
- AUC HT.U0126 (HT-1080): 0.3972
- HT.atoc (AUC) (HT-1080): 0.4471
- HT.bCarotene (AUC) (HT-1080): −0.01346
- HT.deferox (AUC) (HT-1080): 0.3508
- HT.digoxin (AUC) (HT-1080): −0.1463
- HT.trolox (AUC) (HT-1080): 0.4213
- HT.zVAD (AUC) (HT-1080): −0.01599
- AUC, modulator HT.3MA (HT-1080): −0.07471
- AUC, modulator HT.ALLN (HT-1080): −0.03802
- AUC, modulator BJ.3MA (BJeLR): 0.09104
- AUC, modulator BJ.ALLN (BJeLR): 0.01266
- AUC, modulator BJ.Boc D (BJeLR): 0.03832
- AUC, modulator BJ.CHX (BJeLR): 0.1841
- AUC, modulator BJ.Co2+ (BJeLR): 0.1091
- AUC, modulator BJ.DPQ (BJeLR): 0.03115
- AUC, modulator BJ.Gd3+ (BJeLR): 0.02448
- AUC, modulator BJ.LNAME (BJeLR): 0.02932
- AUC, modulator BJ.Lmin/NAD+ (BJeLR): 0.3858
- AUC, modulator BJ.Lmin (BJeLR): 0.3462
- AUC, modulator BJ.NAD+ (BJeLR): 0.04136
- AUC, modulator BJ.NMMA (BJeLR): 0.007806
- AUC, modulator BJ.Nec-1 (BJeLR): 0.2379
- AUC, modulator BJ.Pepstatin (BJeLR): −0.0008093
- AUC, modulator BJ.TLCK (BJeLR): 0.2732
- AUC, modulator BJ.atoc (BJeLR): 0.3601
- AUC, modulator BJ.trolox (BJeLR): 0.3731
- AUC, modulator BJ.zVAD (BJeLR): 0.00586
